Data: patent US9682158B2, “Therapy of malignant neoplasias” (priority 2005, dated 2017)
“Also recorded” adds a separate entry of the source.

What was measured:
[1] = system: glioma, pancreas, prostate and breast cancer cells; assay: Cell survival after treatment with radiolabeled L-phenylalanines, further tumor cells; format: cell-based; conditions: in vitro
Experimental: (§1) After development of a confluent lawn of cells, the cultures were exposed to 0.001-10 μCi/ml of the corresponding radiopharmaceutical for up to 48 hours at 37° C./5% CO2. In a parallel experiment, cells were irradiated using a 6-MeV linear accelerator with doses from 2 to 15 Gy for comparison of cell survival rate of both methods. In order to be able to observe the morphology of the glioma cells, the cells were grown on standard glass slides or in standard culture dishes. Then the medium was removed and the cells were fixed either in 70% ethanol for at least 30 min on ice for flow-cytometric analyses after staining or in 4% neutral buffered formalin for immunohistopathological analyse.
(§2) Human tumor cells grown on standard glass slides were fixed in 4% neutral buffered formalin and stained with the Giemsa method. The cell number was calculated in 10 consecutive high power fields (×40).

[2] = system: human tumor cells, especially malignant gliomas; assay: Flow-cytometric analyses of stained cells after treatment (primary necrosis and apoptosis); format: cell-based; conditions: flow cytometry; compared with external irradiation up to 15 Gy
Experimental: as §1

glioma [3] = assay: Clinical studies with IPA-123 (SPECT imaging); format: in vivo, human; conditions: 250 MBq
Experimental: IPA was prepared, as described in example 2. […] Patients were injected with 250 MBq IPA-123, and subsequently imaged at 30 min, 3 h and, where possible, 24 h post injection, using a triple head SPECT camera (Siemens Multi-SPECT III, Erlangen, Germany) with low energy high resolution (LEHR) collimator and iterative reconstruction for cerebral (FIG. 14) imaging. Whole body imaging (FIG. 15) was performed using a Hawkeye dual head SPECT camera (General Electrics Medical Systems, Uppsala, Sweden) with high energy collimator, and iterative reconstruction at 0 min, 1 h and 3 h after injection of 250 MBq IPA-123. SPECT images were acquired using 3-degree angular steps. During a 360° rotation 120 projections were recorded into a 128*128 matrix, with an acquisition time of 40 s per image. Images were reconstructed using manufacturer's software. Anatomical co-alignment with MRI data was performed using HERMES software for nuclear medicine (Nuclear Diagnostics, Stockholm, Sweden). Tumor uptake was visually assessed by two adequately trained, independent nuclear medicine physicians. In discordant cases, a consensus rating was agreed upon. 86% of patients with histologically confirmed tumor show IPA-123 uptake.

glioma [4] = conditions: cited from earlier work
glioma [5] = assay: Clinical study with IPA-124 (PET imaging); format: in vivo, human
Experimental: IPA was prepared, as described in example 3. […] The patient was injected with 50 MBq IPA-124, and subsequently dynamically imaged at 40-80 min and at 6 days post injection using a dedicated PET camera (Siemens ECAT-ART Scanner, Siemens-CTI, Knoxville, Tenn., USA). SPECT images were acquired using 3-degree angular steps. During a 360° rotation 120 projections were recorded into a 128*128 matrix, with an acquisition time of 40 s per image. Images were reconstructed using manufacturer's software. Anatomical co-alignment with MRI data was performed using HERMES software for nuclear medicine (Nuclear Diagnostics, Stockholm, Sweden) (FIGS. 12a and b). Tumor uptake was visually assessed by two adequately trained, independent nuclear medicine physicians. The patient was operated on day 2 post injection. Post-operative images continue to show strong IPA uptake in projection to the resection margins corresponding to a large portion of tumor tissue which remained in situ. […] Post-operative images were semiquantitatively analysed. A region of interest (ROI) was drawn over the area of increased IPA-124 uptake and compared to a mirrored reference ROI in the contralateral healthy hemisphere using the median sagittal plane as mirror plane (FIG. 12c). Activity concentration in the remaining tumor tissue exceeded activity in the reference region by a factor of 8.86 after 6 days.

[6] = physical half life of the radionuclide; cited from earlier work
[7] = system: human A1207 glioblastomas; assay: IPA-131 endoradiotherapy of orthotopic human A1207 glioblastomas; format: in vivo; conditions: dose 20 MBq, RNU rats
Experimental: (§3) The first studies were carried out on in male Wistar rats for C6 rat glioma model and in RNU rats for human glioma models. Wistar rats and RNU rats were from Charles River (Sulzfeld, Germany). The C6 rat glioma model has been previously described in detail. Its biological behavior closely simulates that of human high-grade gliomas.
(§4) One million (10^6) C6 rat glioma cells or 10^6 primary human Tx3868, […], A1207, M059K and U373MG high-grade glioma cells were stereotactically implanted into the left frontal region of Wistar rats or RNU rats while under chloral hydrate anaesthesia as described previously. The animals were held in metabolic cages. […] For each cell line, 6 animals with radiologically (MRI or by gamma camera) confirmed brain tumor were randomly chosen as control animals, a second group of 15 animals were treated with 20 MBq of the radiolabeled L-phenylalanine in two fractions of 10 MBq each via a Teflon catheter in a tail vein 9 and 18 days after tumour implantation. While a third group of 15 rats were irradiated with 4-8 Gy. Survival time was calculated according to the Kaplan-Meier method. Surviving animals were sacrificed after 90 and 180 days. All rat brains were examined histologically after biopsy.
(§5) At autopsy of the rats and mice, besides the brains, other organs were harvested including the heart, lung, liver, spleen, kidney, skin, and colon. […]

[8] = Clinical and histological safety observation of treated glioma rats; format: in vivo, rat
Experimental: as §4
At autopsy of the rats and mice, besides the brains, other organs were harvested including the heart, lung, liver, spleen, kidney, skin, and colon. The brains were cut in coronal slices of about 2-3 mm thickness. All tissues from the animals were fixed in 4% neutral buffered formalin and embedded in paraffin wax. Sections were stained with hematoxylin-eosin and Verhoeff-van Gieson and examined histopathologically.

[9] = system: orthotopically implanted rat and human gliomas; assay: IPA-131 endoradiotherapy in rats with orthotopically implanted rat and human gliomas, Kaplan-Meier survival; format: in vivo
Experimental: as §3, §4

glioma [10] = assay: Clinical study with IPA-131 (SPECT imaging); format: in vivo, human; conditions: 100 MBq
Experimental: IPA was prepared, as described in example 3. […] The patient was injected with 100 MBq IPA-131 and subsequently imaged at 30 min and at 26 h post injection using a Hawkeye dual head SPECT camera (General Electrics Medical Systems, Uppsala, Sweden) with high energy collimator, and iterative reconstruction for cerebral (FIGS. 13a and b) and whole body (FIGS. 13c and d) imaging. SPECT images were acquired using 3-degree angular steps. During a 360° rotation 120 projections were recorded into a 128*128 matrix, with an acquisition time of 40 s per image. Images were reconstructed using manufacturer's software. Tumor uptake was visually assessed by two adequately trained, independent nuclear medicine physicians.

[11] = system: T5135 primary human glioma cell line; assay: Cell survival rate after treatment with radiolabeled L-phenylalanines; format: cell-based; conditions: 24 hours exposure, 1 μCi/ml, compared to parallel grown cell cultures without exposure
Experimental: (§6) Five human glioma cell lines, one rat glioma cell line, two human prostate cancer cell lines and one human breast cancer cell line were investigated. The human glioma cell lines Tx 3868 and T 5135 (from primary human glioblastoma multiforme), and the rat C6 glioma cells were provided by the Institute of Human Genetics, University of the Saarland (Homburg, Germany). The human high-grade glioma cells, designated as A1207, M059K and U373MG, the human prostate cancer cell lines PC3 and […], and the human breast cancer cell line MCF-07 (American Type Culture Collection, Rockville, Md.), were purchased commercially or provided by the oncological research laboratory of the University Medical Center of Saarland (Homburg, Germany). Cells were cultivated in RPMI-1640 medium or in Dulbecco's modified Eagle medium (sodium pyruvate-free, supplemented with […] and pyridoxine), respectively, supplemented with 10% (v/v) heat-inactivated foetal calf serum (FCS), penicillin (50 U/ml), streptomycin (50 μg/ml), and 50 μl insulin (PromoCell, Heidelberg, Germany). All cells lines were maintained in appropriate flasks in a humidified incubator (5% CO2) at 37° C. Before the experiment, subconfluent cell cultures were trypsinized with a solution of 0.05% trypsin containing 0.02% EDTA but without Ca^2+ and Mg^2+, and resuspended in fresh medium to various cell concentrations after counting by vital staining on a hemocytometer, depending upon the study. Cells were free of mycoplasms. Viability of the cells was >95%.
(§7) After development of a confluent lawn of cells, the cultures were exposed to 0.001-10 μCi/ml of the corresponding radiopharmaceutical for up to 48 hours at 37° C./5% CO2. In a parallel experiment, cells were irradiated using a 6-MeV linear accelerator with doses from 2 to 15 Gy for comparison of cell survival rate of both methods. […]
as §2

[12] = system: Tx 3868 primary human glioma cell line; assay: as above; format: cell-based
Experimental: as §6, §7, §2

[13] = system: human Tx3868 glioblastomas; assay: IPA-131 endoradiotherapy of orthotopic human Tx3868 glioblastomas; format: in vivo; conditions: dose 20 MBq, RNU rats
Experimental: as §3, §4, §5

C6 rat gliomas = assay: IPA-131 endoradiotherapy of orthotopic C6 rat gliomas; format: in vivo
Experimental: […] Wistar rats and RNU rats were from Charles River (Sulzfeld, Germany). The C6 rat glioma model has been previously described in detail. Its biological behavior closely simulates that of human high-grade gliomas.
as §4
Magnetic resonance imaging was performed 9 days after tumour implantation (before drug administration) and after the second injection of radiolabeled phenylalanine at day 18 as well as possibly at the day of scarification, using a 2.4-Tesla small animal magnetic resonance tomograph (Brucker Biospec 2.4, Karlruhe, Germany). This system was equipped with a rat coil to hold the animal and transmit homogeneous signals. All rats were imaged while under chloral hydrate anaesthesia (250 mg/kg, i.m.). Multiple axial and coronal images (T1- and T2-weighted) were acquired for 20 min without contrast media. The parameters used were: T1-weighted (TR=100 msec, TE=6.5 msec, flip angle 30°, FOV=2×2 cm, 256×128×64 matrix) and T2-weighted (TR=500 msec, TE=17.5 msec, 1 acquisition, RARE factor 16, FOV=2×2 cm, 256×256×32 matrix, slap-thickness 16 mm).
as §5

Molecule: 3,4-[^77Br]bromo-L-Phenylalanine [BrPA-77]
- cell count / cell survival compared with IPA-131 results [1]: Identical results
- induction of primary necrosis and apoptosis [2]: dose dependent induction of primary necrosis and apoptosis, which was more significant than that caused by external irradiation, even with 15 Gy

Molecule: 3,4-[^211I]astatine-L-phenylalanine [AtPA-211]
- cell count / cell survival compared with IPA-131 results [1]: Identical results
- induction of primary necrosis and apoptosis [2]: dose dependent induction of primary necrosis and apoptosis, which was more significant than that caused by external irradiation, even with 15 Gy

Molecule: N[C@@H](Cc1ccc([123I])cc1)C(=O)O [IPA-123, 4-[^123I]iodo-L-phenylalanine]
- patients with histologically confirmed tumor showing uptake (glioma [3]; visual assessment): 86%
- retention of the tracer in tumor (glioma [3]; patient with glioblastoma): at least 24 h
- accumulation in gliomas (glioma [4]; after intravenous administration, ref [14]): accumulates specifically in low and high grade gliomas with surprisingly marked retention in tumor cells
- blood-brain barrier passage (glioma [4]; after intravenous administration, refs [13, 14]): crosses the blood-brain barrier
- accumulation in the normal cerebral parenchyma (glioma [4]; refs [13, 14]): moderate and decreases rapidly with time

Molecule: N[C@@H](Cc1ccc([124I])cc1)C(=O)O [IPA-124, 4-[^124I]iodo-L-phenylalanine]
- tumor uptake / targeting in glioma patient (glioma [5]; 50 MBq, PET 40-80 min and 6 days post injection): retained in high activity concentrations by tumor tissue for prolonged periods; also recorded: Successful tumor targeting
- tolerability (glioma [5]; patient, 50 MBq): well tolerated
- retention of tracer in glioma (glioma [5]; patient, 50 MBq, PET): at least 6 days
- tumor activity relative to reference region (contralateral healthy tissue), factor (glioma [5]; post-operatively remaining tumor tissue, 6 days post injection of 50 MBq): 8.86
- half life [6]: 4.2 days

Molecule: N[C@@H](Cc1ccc([131I])cc1)C(=O)O [IPA-131, 4-[^131I]iodo-L-phenylalanine]
- metabolic and H & E staining of fresh-frozen tissue sections [7]: metabolic normalisation, and histological tumor disappearance
- seizures ([8]; treated animals): No seizures were observed
- liver and kidney histomorphology ([8]; treated animals, autopsy): did not show any histomorphological abnormality
- adverse therapy-related events and toxic effects ([8]; treated glioma rats, clinical observation): no adverse therapy-related events and no toxic effects were observed clinically
- survival vs maximum tolerable external irradiation ([9]; Kaplan-Meier analysis, 20 MBq vs external irradiation): significantly longer survival than those treated by maximum tolerable doses of external irradiation
- survival time of treated rats vs control group ([9]; all glioma models, 20 MBq i.v. in two fractions): significantly increased
- tumor uptake / targeting in glioma patient (glioma [10]; SPECT 30 min and 26 h post injection): not only taken up but also retained by glioma tissue; also recorded: Successful tumor targeting
- tolerability (glioma [10]; patient): well tolerated
- retention in tumor (glioma [10]; patient, SPECT): at least 26 hours
- cell survival rate [11]: < 20%
- cell survival rate ([12]; 24 hours exposure, 1 μCi/ml, compared to parallel grown cell cultures without exposure): less than 22%
- mode of cell death (cytological) ([12]; primary human glioma cell lines after 24 hours exposure): apoptosis
- induction of primary necrosis and apoptosis [2]: dose dependent induction of primary necrosis and apoptosis, which was more significant than that caused by external irradiation, even with 15 Gy
- metabolic and H & E staining of fresh-frozen tissue sections [13]: metabolic normalisation, and histological tumor disappearance
- Kaplan-Meier survival of treated animals group (C6 rat gliomas; C6-glioma rats, 81 days after implantation, p=<0.05): significant longer survival
- tumor disappearance, intravital small animal MRI imaging (C6 rat gliomas; dose 20 MBq, RNU rats): subgaleal and intracerebral tumor disappearance
- tumour on MRI (C6 rat gliomas; surviving C6-glioma rats, 81 days after implantation): no tumour was demonstrable with MRI
